From ChEMBL document CHEMBL1144607, “Novel hydroxamic acid-related phosphinates: inhibition of neutral aminopeptidase N (APN)” (Bioorg Med Chem Lett, 2007) come the findings set out here.

Molecules are shown by their SMILES. The source made the active and inactive calls. No cut-off for these calls is given here.

The target in experiment [1] is T1, Aminopeptidase N (Homo sapiens, UniProt P15144). As to the kind of experiment: Inhibition of APN at <300 uM.
For experiment [2], the target named is T1, Aminopeptidase N. As to the kind of experiment: Inhibition of APN.

T1 sequence (P15144 whole entry): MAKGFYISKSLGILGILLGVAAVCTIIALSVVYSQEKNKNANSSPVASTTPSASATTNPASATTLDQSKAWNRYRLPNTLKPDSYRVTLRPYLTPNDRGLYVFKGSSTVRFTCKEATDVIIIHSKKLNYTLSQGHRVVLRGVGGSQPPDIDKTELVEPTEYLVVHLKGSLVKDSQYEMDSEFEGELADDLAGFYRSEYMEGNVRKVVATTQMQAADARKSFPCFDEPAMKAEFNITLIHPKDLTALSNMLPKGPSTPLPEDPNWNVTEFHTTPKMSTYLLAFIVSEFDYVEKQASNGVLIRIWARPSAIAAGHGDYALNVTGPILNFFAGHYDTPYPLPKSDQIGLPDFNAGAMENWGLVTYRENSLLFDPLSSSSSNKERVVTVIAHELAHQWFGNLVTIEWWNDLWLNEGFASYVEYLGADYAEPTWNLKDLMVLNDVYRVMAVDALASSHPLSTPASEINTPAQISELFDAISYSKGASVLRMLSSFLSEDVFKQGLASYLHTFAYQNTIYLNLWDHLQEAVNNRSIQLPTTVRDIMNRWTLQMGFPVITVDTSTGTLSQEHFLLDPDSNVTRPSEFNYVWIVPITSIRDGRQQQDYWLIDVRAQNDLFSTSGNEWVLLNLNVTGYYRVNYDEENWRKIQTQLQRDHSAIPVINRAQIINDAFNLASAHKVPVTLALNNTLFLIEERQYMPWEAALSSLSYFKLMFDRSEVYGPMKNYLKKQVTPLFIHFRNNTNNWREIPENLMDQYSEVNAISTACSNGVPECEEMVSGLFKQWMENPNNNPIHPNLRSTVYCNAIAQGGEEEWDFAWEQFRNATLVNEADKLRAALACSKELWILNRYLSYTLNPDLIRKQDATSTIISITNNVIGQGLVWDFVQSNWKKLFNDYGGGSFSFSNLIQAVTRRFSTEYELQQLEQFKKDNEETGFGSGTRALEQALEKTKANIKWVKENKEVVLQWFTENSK

For the compound `CCNC(=O)P(=O)(O)C(N)C(C)C` (centres undefined), the outcome on Aminopeptidase N [1] was inactive. With `CC(C)C(N)P(=O)(O)C(=O)Nc1ccccc1` (centres undefined), the concentration for half-maximal inhibition (IC50) against Aminopeptidase N [2] was 160 µM. `CCCCCNC(=O)P(=O)(O)C(N)Cc1ccccc1` (centres undefined): the result at Aminopeptidase N [1] was inactive. Regarding `CC(C)CC(N)P(=O)(O)C(C)N` (centres undefined), the midpoint of inhibition on Aminopeptidase N [2], the IC50, lay at 155 µM.

Usually IC50 stands for the concentration needed to halve the response being measured.
